Drawing on a melting point compilation (Tetko et al.), this text covers melting point for 19 compounds.

Molecules are shown by their SMILES. Non-standard residues stand in square brackets, D forms with d. Residues, ends and D or L forms follow the SMILES beside them. *: point of attachment. Phe(2-Me) = Cc1ccccc1C[CH](N)C(=O)O; Tle = CC(C)(C)[CH](N)C(=O)O; X3 = CC(C)(C)OC(=O)CCC(=O)*; OtBu = CC(C)(C)O*

With `COC(=O)CNC(=O)[C@H](NC(=O)[C@@H](CSC(c1ccccc1)(c1ccccc1)c1ccccc1)NC(=O)[C@@H](C)NC(=O)OCC1c2ccccc2-c2ccccc21)C(C)C`, the melting point – broadly, the temperature, or range, at which the solid turns liquid – lay in the range of 195 to 197 °C.
`COc1cc(OC)c(/C=C/C(c2ccc(OC)c(NC(=O)c3ccc([N+](=O)[O-])cc3)c2)S(=O)(=O)C(/C=C/c2c(OC)cc(OC)cc2OC)c2ccc(OC)c(NC(=O)c3ccc([N+](=O)[O-])cc3)c2)c(OC)c1` (centres undefined): the melting point lay within 206 to 208 °C.
For `CC(C)c1ccc(S(=O)(=O)OC(c2cc(C(OS(=O)(=O)c3ccc(C(C)C)cc3)(C(F)(F)F)C(F)(F)F)cc(C(OS(=O)(=O)c3ccc(C(C)C)cc3)(C(F)(F)F)C(F)(F)F)c2)(C(F)(F)F)C(F)(F)F)cc1` the value was 105 °C.
To `CCN(CC)CCN=S(=O)(c1ccccc1)c1cccs1` (centres undefined) belongs 116 °C.
For `CCCCCCCCCCCCCC(=O)Nc1ccc(Cl)c(NC2=NN(c3c(Cl)cc(Cl)cc3Cl)C(=O)C2Sc2nnnn2-c2cccc(C(=O)O)c2)c1` (centres undefined) the value was 155 to 165 °C; for `CCCCN(Cc1c(C)cc(C(C)(C)C)c(O)c1C)S(=O)(=O)c1ccc(-c2ccc(S(=O)(=O)N(CCCC)Cc3c(C)cc(C(C)(C)C)c(O)c3C)cc2)cc1`, 225 to 227 °C.
As to `CCN(CC)CCN=S(=O)(c1ccccc1)c1ccco1` (centres undefined), the melting point came to 133 °C.
`CC(C)CCCC(C)CCC1(CCC(C)CCCC(C)C)c2cc(Br)ccc2-c2ccc(-c3nc4cc5sc(-c6ccc7c(c6)C(CCC(C)CCCC(C)C)(CCC(C)CCCC(C)C)c6cc(Br)ccc6-7)nc5cc4s3)cc21` (centres undefined) gave a melting point of 163 to 166 °C.
`CC(=O)OCC1OC(OC2C(COC(C)=O)OC(OC3C(COC(C)=O)OC(OCCBr)C(N4C(=O)c5ccccc5C4=O)C3OC(C)=O)C(OC(C)=O)C2OC(C)=O)C(OC(C)=O)C(OC(C)=O)C1OC(C)=O` (centres undefined) returned a melting point of 227 to 229 °C.
For `COc1ccc(C2Sc3ccccc3N(CCN(C)C)C(=O)C2OC(=O)C=CC(=O)OC2C(=O)N(CCN(C)C)c3ccccc3SC2c2ccc(OC)cc2)cc1` (centres undefined) the value was 112 to 114 °C; for `CNC(=O)OC(COc1ccc(C(C)(C)c2ccc(OCC(CN3C(=O)NC4(CC(C)(C)NC(C)(C)C4)C3=O)OC(=O)NC)cc2)cc1)CN1C(=O)NC2(CC(C)(C)NC(C)(C)C2)C1=O` (centres undefined), 238 to 242 °C.
Take `COc1cc(OC)c(/C=C/C(c2ccc(OC)c(NC(=O)c3ccc(N)cc3)c2)S(=O)(=O)C(/C=C/c2c(OC)cc(OC)cc2OC)c2ccc(OC)c(NC(=O)c3ccc(N)cc3)c2)c(OC)c1` (centres undefined): the melting point is 137 to 140 °C.
For `Cc1ccccc1CC(NC(=O)C(CCC(=O)OC(C)(C)C)NC(=O)C(CC(=O)OC(C)(C)C)NC(=O)CCC(=O)OC(C)(C)C)C(=O)NC(C(=O)NC(CC(C)C)C(=O)O)C(C)(C)C` (X3-D(OtBu)E(OtBu)[Phe(2-Me)][Tle]L-OH; configuration not given here) the value was 235 to 236 °C; for `CCCCC(C)OC(=O)c1c(I)c(I)c(C(=O)OC(C)CCCC)c(I)c1I` (centres undefined), 114 to 115 °C; for `CCCCCCCCCCCCCCCCCCOC(=O)c1cc(C(C)(C)C)c(O[Si](C)(C)Oc2c(C(C)(C)C)cc(C(=O)OCCCCCCCCCCCCCCCCCC)cc2C(C)(C)C)c(C(C)(C)C)c1`, 68.5 to 69.5 °C.
To `CC[C@H](C)[C@H](NC(=O)OCC1c2ccccc2-c2ccccc21)C(=O)N[C@@H](Cc1ccc(OC(C)(C)C)cc1)C(=O)N[C@@H](C)C(=O)NCc1c(OC)ccc2c1Oc1c(ccc(OC)c1CC(=O)OCc1ccccc1)C2(C)C` belongs 218 to 220 °C; to `Nc1ncnc2c1c(I)cn2COC(O)CCO` (centres undefined), 177 to 178 °C.
To `C[Si](C)(C)CCS(=O)(=O)N=S(=O)(c1ccc(N)cc1)C1CC1` (racemic) belongs 137 to 138 °C; to `CC(=O)OCC1OC(OC2C(COC(C)=O)OC(OC3C(COC(C)=O)OC(OCCBr)C(OC(C)=O)C3OC(C)=O)C(OC(C)=O)C2OC(C)=O)C(OC(C)=O)C(OC(C)=O)C1OC(C)=O` (centres undefined), 179 to 181 °C.
